# Test results from PMC3602205 (Chemico-biological interactions, 2013).
# Numbering of substitutions follows the chain as printed.
# Tests used:
# [1] = target: T1, Ct-FDH (carboxy-terminal ALDH domain of 10-formyltetrahydrofolate dehydrogenase, Aldh1l1) (Rattus norvegicus, UniProt P28037, C707S); assay: quenching of tryptophan fluorescence; format: binding
# T1 sequence (P28037 400-902 C707S): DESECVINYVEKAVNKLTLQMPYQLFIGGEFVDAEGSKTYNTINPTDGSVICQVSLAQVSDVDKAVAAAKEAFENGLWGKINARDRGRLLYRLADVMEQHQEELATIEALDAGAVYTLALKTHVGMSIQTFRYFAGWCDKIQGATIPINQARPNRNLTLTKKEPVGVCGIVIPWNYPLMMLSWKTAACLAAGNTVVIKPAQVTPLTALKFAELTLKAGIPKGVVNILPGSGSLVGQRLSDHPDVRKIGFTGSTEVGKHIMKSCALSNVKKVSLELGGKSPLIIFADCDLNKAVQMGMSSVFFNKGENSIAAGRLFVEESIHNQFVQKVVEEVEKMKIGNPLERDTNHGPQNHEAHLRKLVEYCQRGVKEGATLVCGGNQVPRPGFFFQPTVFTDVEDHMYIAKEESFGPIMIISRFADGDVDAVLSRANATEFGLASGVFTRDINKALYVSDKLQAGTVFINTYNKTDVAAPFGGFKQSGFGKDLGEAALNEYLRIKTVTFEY
# [2] = target: T2, Ct-FDH (carboxy-terminal ALDH domain of 10-formyltetrahydrofolate dehydrogenase, Aldh1l1) (Rattus norvegicus, UniProt P28037); assay: quenching of tryptophan fluorescence; format: binding
# T2 sequence (P28037 400-902): T1 sequence (P28037 400-902 C707S) with S308C
Kd [1] [µM],Kd [2] [µM],SMILES
11 ± 1.5,–,NC(=O)c1ccc[n+]([C@@H]2O[C@H](COP(=O)(O)OP(=O)(O)OC[C@H]3O[C@@H](n4cnc5c(N)ncnc54)[C@H](OP(=O)(O)O)[C@@H]3O)[C@@H](O)[C@H]2O)c1 [NADP^+]
–,17 ± 0.8,NC(=S)c1ccc[n+]([C@@H]2O[C@H](COP(=O)(O)OP(=O)(O)OC[C@H]3O[C@@H](n4cnc5c(N)ncnc54)[C@H](OP(=O)(O)O)[C@@H]3O)[C@@H](O)[C@H]2O)c1 [thio-NADP^+]
